Assay results: ChEMBL document CHEMBL4699602, “Stapled and Xenopus Glucagon-Like Peptide 1 (GLP-1)-Based Dual GLP-1/Gastrin Receptor Agonists with Improved Metabolic Benefits in Rodent Models of Obesity and Diabetes” (J Med Chem, 2020)
Activity calls are given as the source filed them. No cut-off for these calls is given here. Where a SMILES comes first, the peptide text is derived from it.

Experiments:
[1] = molecular target: T1, Glucagon-like peptide 1 receptor (Homo sapiens, UniProt P43220); assay: Agonist activity at human GLP-1R expressed in HEK293 cells assessed as stimulation of cAMP accumulation incubated for 20 mins in presence of 0% HSA; format: functional, cell-based
T1 sequence (P43220 whole entry): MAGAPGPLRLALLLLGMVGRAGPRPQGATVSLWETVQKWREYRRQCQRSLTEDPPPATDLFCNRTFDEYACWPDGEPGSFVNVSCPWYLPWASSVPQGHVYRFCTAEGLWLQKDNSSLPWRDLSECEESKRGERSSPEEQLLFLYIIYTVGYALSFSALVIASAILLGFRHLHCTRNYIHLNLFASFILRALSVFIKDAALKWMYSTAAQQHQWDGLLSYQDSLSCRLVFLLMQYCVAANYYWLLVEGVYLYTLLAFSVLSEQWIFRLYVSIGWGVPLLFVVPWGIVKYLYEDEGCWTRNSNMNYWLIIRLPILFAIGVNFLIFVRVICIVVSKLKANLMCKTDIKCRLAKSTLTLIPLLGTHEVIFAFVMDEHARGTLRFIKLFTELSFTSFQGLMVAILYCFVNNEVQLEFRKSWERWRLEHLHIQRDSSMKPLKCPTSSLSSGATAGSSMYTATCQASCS

[2] = molecular target: T1, Glucagon-like peptide 1 receptor; assay: Agonist activity at human GLP-1R expressed in HEK293 cells assessed as stimulation of cAMP accumulation incubated for 20 mins in presence of 4.4% HSA; format: functional, cell-based
[3] = molecular target: T1, Glucagon-like peptide 1 receptor; assay: Ratio of EC50 for agonist activity at human GLP-1R expressed in HEK293 cells in presence of 4.4% HSA to EC50 for agonist activity at human GLP-1R expressed in HEK293 cells in presence of 0% HSA; format: cell-based
serum albumin = serum albumin (Homo sapiens, UniProt P02768); assay: Binding affinity to human serum albumin in PBS pH 7.4 at 100 ug/mL incubated for 2 hrs by LC-MS/MS analysis relative to control; format: ADME; details: at 100 µg/mL, read-out: PB (converted)
serum albumin, sequence (P02768 whole entry): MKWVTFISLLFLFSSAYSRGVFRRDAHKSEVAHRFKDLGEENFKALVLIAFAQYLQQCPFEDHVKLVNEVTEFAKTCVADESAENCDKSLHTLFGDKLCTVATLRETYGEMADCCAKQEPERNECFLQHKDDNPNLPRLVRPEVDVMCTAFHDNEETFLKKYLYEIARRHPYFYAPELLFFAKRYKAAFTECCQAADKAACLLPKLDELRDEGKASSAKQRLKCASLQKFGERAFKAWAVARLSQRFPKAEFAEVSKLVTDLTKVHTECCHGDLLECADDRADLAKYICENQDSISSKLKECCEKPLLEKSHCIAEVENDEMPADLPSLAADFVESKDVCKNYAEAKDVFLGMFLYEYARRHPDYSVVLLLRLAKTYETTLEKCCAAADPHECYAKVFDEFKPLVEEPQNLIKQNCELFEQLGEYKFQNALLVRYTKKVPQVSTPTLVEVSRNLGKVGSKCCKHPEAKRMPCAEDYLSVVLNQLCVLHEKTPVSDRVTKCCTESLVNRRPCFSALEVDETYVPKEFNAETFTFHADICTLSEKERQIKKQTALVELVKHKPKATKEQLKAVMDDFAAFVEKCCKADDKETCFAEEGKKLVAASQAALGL

Mus musculus [4] = assay: Hypoglycemic activity in non-fasted db/db mouse assessed as decrease in blood glucose concentration at 25 nmol/kg, sc by OGTT method; format: functional, organism-based
Mus musculus [5] = assay: Reduction in body weight in C57BL/6 mouse model of diet induced obesity at 25 nmol/kg, sc BID for 1 week relative to control; format: functional; parameters: scale not given: the % may be the effect or the level left; details: time 1 weeks
Mus musculus [6] = assay: Reduction in food intake in C57BL/6 mouse model of diet induced obesity at 25 nmol/kg, sc BID for 1 week relative to control; format: functional, organism-based; details: time 1.0 weeks
Mus musculus [7] = assay: Reduction in fasted hyperglycemia in C57BL/6 mouse model of diet induced obesity at 25 nmol/kg, sc BID for 1 week relative to control; format: functional, organism-based; details: time 1.0 weeks
Mus musculus [8] = assay: Hypoglycemic activity in non-fasted db/db mouse assessed as duration of time during which decrease in blood glucose concentration is observed at 25 nmol/kg, sc by OGTT method; format: functional
Mus musculus [9] = assay: Reduction in body weight in C57BL/6 mouse model of diet induced obesity at 25 nmol/kg, sc dosed every 2 days for 1 week relative to control; format: functional; parameters: scale not given: the % may be the effect or the level left; details: time 1 weeks
Mus musculus [10] = assay: Reduction in food intake in C57BL/6 mouse model of diet induced obesity at 25 nmol/kg, sc dosed every 2 days for 1 week relative to control; format: functional, organism-based; details: time 1.0 weeks
Mus musculus [11] = assay: Reduction in fasted hyperglycemia in C57BL/6 mouse model of diet induced obesity at 25 nmol/kg, sc dosed every 2 days for 1 week relative to control; format: functional, organism-based; details: time 1.0 weeks

Compound	EC50 [1] [nM]	EC50 [2] [nM]	Ratio EC50 [3]	fraction unbound at 2 h, 100 ug/mL (serum albumin)	Activity (Mus musculus [4])	Activity (Mus musculus [5]) [%]	Activity (Mus musculus [6])	Activity (Mus musculus [7])	Time (Mus musculus [8]) [h]	Activity (Mus musculus [9]) [%]	Activity (Mus musculus [10])	Activity (Mus musculus [11])
CCCCCCCCCCCCCCCC(=O)NCCCCCCNC(=O)C1CCCCNC(=O)CCN2C(=O)CC(SC[C@H](NC(=O)[C@H](Cc3ccc(O)cc3)NC(=O)[C@H](CCC(=O)O)NC(=O)[C@@H](NC(=O)[C@@H](NC(=O)[C@H](CC(=O)O)NC(=O)[C@H](CC(N)=O)NC(=O)[C@@H](NC(=O)[C@H](Cc3ccc(O)cc3)NC(=O)[C@@H](NC(=O)CNC(=O)[C@H](CCC(=O)O)NC(=O)C(C)(C)NC(=O)[C@@H](N)Cc3c[nH]cn3)[C@@H](C)O)[C@@H](C)O)C(C)C)[C@@H](C)O)C(=O)N[C@@H](CCC(=O)O)C(=O)N[C@@H](CCC(=O)O)C(=O)N[C@@H](CCC(=O)O)C(=O)N[C@@H](C)C(=O)N[C@@H](C)C(=O)N[C@@H](CCCCN)C(=O)N[C@H](C(=O)N[C@@H](Cc3ccccc3)C(=O)N[C@H](C(=O)N[C@@H](CCC(=O)O)C(=O)N[C@@H](Cc3c[nH]c4ccccc34)C(=O)N[C@@H](CC(C)C)C(=O)N[C@H](C(=O)N[C@@H](CCCCN)C(=O)NCC(=O)N[C@@H](CCCCN)C(=O)N3CCC[C@H]3C(=O)N[C@@H](CO)C(=O)N[C@@H](CO)C(=O)NCC(=O)N[C@@H](C)C(=O)N3CCC[C@H]3C(=O)N3CCC[C@H]3C(=O)N3CCC[C@H]3C(=O)N[C@@H](CO)C(N)=O)[C@@H](C)CC)[C@@H](C)CC)CSC3CC(=O)N(CCC(=O)N1)C3=O)C2=O (stereo not given in full) (HELM PEPTIDE1{H.[Aib].E.G.T.Y.T.N.D.V.T.E.Y.C.E.E.E.A.A.K.C.F.I.E.W.L.I.K.G.K.P.S.S.G.A.P.P.P.S.[am]}|CHEM1{[CCCCCCCCCCCCCCCC(=O)NCCCCCCNC(=O)C(CCCCNC(=O)CCN1C(=O)CC([*:1])C1=O)NC(=O)CCN1C(=O)CC([*:2])C1=O]}$PEPTIDE1,CHEM1,14:R3-1:R1|PEPTIDE1,CHEM1,21:R3-1:R2$$$V2.0)	0.041	0.91	22.2	0.162	Active	14.4	Active	Active	–	–	–	–
CCCCCCCCCCCCCCCC(=O)NCCCCCCNC(=O)C1CCCCNC(=O)CCN2C(=O)CC(SC[C@H](NC(=O)[C@H](CCCCN)NC(=O)[C@H](C)NC(=O)[C@H](C)NC(=O)[C@H](CCC(=O)O)NC(=O)[C@H](CCC(=O)O)NC(=O)[C@H](CCC(=O)O)NC(=O)[C@H](CC(C)C)NC(=O)[C@H](Cc3ccc(O)cc3)NC(=O)[C@H](CCC(=O)O)NC(=O)[C@@H](NC(=O)[C@@H](NC(=O)[C@H](CC(=O)O)NC(=O)[C@H](CC(N)=O)NC(=O)[C@@H](NC(=O)[C@H](Cc3ccc(O)cc3)NC(=O)[C@@H](NC(=O)CNC(=O)[C@H](CCC(=O)O)NC(=O)C(C)(C)NC(=O)[C@@H](N)Cc3c[nH]cn3)[C@@H](C)O)[C@@H](C)O)C(C)C)[C@@H](C)O)C(=O)N[C@@H](Cc3ccccc3)C(=O)N[C@@H]([C@@H](C)CC)C(=O)N[C@@H](CCC(=O)O)C(=O)N[C@@H](Cc3c[nH]c4ccccc34)C(=O)N[C@@H](CC(C)C)C(=O)N[C@@H]([C@@H](C)CC)C(=O)N[C@H](C(=O)NCC(=O)N[C@@H](CCCCN)C(=O)N3CCC[C@H]3C(=O)N[C@@H](CO)C(=O)N[C@@H](CO)C(=O)NCC(=O)N[C@@H](C)C(=O)N3CCC[C@H]3C(=O)N3CCC[C@H]3C(=O)N3CCC[C@H]3C(=O)N[C@@H](CO)C(N)=O)CSC3CC(=O)N(CCC(=O)N1)C3=O)C2=O (stereo not given in full) (HELM PEPTIDE1{H.[Aib].E.G.T.Y.T.N.D.V.T.E.Y.L.E.E.E.A.A.K.C.F.I.E.W.L.I.C.G.K.P.S.S.G.A.P.P.P.S.[am]}|CHEM1{[CCCCCCCCCCCCCCCC(=O)NCCCCCCNC(=O)C(CCCCNC(=O)CCN1C(=O)CC([*:1])C1=O)NC(=O)CCN1C(=O)CC([*:2])C1=O]}$PEPTIDE1,CHEM1,21:R3-1:R1|PEPTIDE1,CHEM1,28:R3-1:R2$$$V2.0)	0.054	1.3	24.1	0.15	Active	15.2	Active	Active	–	–	–	–
CC[C@H](C)[C@H](NC(=O)[C@H](CC(C)C)NC(=O)[C@H](Cc1c[nH]c2ccccc12)NC(=O)[C@H](CCC(=O)O)NC(=O)[C@@H](NC(=O)[C@H](Cc1ccccc1)NC(=O)[C@@H]1CSC2CC(=O)N(CCC(=O)NC(C(=O)NCCCCCCNC(=O)COCCOCCNC(=O)CCC(NC(=O)CCCCCCCCCCCCCCCCC(=O)O)C(=O)O)CCCCNC(=O)CCN3C(=O)CC(SC[C@H](NC(=O)[C@H](Cc4ccc(O)cc4)NC(=O)[C@H](CCC(=O)O)NC(=O)[C@@H](NC(=O)[C@@H](NC(=O)[C@H](CC(=O)O)NC(=O)[C@H](CC(N)=O)NC(=O)[C@@H](NC(=O)[C@H](Cc4ccc(O)cc4)NC(=O)[C@@H](NC(=O)CNC(=O)[C@H](CCC(=O)O)NC(=O)C(C)(C)NC(=O)[C@@H](N)Cc4c[nH]cn4)[C@@H](C)O)[C@@H](C)O)C(C)C)[C@@H](C)O)C(=O)N[C@@H](CCC(=O)O)C(=O)N[C@@H](CCC(=O)O)C(=O)N[C@@H](CCC(=O)O)C(=O)N[C@@H](C)C(=O)N[C@@H](C)C(=O)N[C@@H](CCCCN)C(=O)N1)C3=O)C2=O)[C@@H](C)CC)C(=O)N[C@@H](CCCCN)C(=O)NCC(=O)N[C@@H](CCCCN)C(N)=O (stereo not given in full) (HELM PEPTIDE1{H.[Aib].E.G.T.Y.T.N.D.V.T.E.Y.C.E.E.E.A.A.K.C.F.I.E.W.L.I.K.G.K.[am]}|CHEM1{[O=C(O)CCCCCCCCCCCCCCCCC(=O)NC(CCC(=O)NCCOCCOCC(=O)NCCCCCCNC(=O)C(CCCCNC(=O)CCN1C(=O)CC([*:1])C1=O)NC(=O)CCN1C(=O)CC([*:2])C1=O)C(=O)O]}$PEPTIDE1,CHEM1,14:R3-1:R1|PEPTIDE1,CHEM1,21:R3-1:R2$$$V2.0)	0.059	2.8	47.5	0.074	Active	–	–	–	24	9.8	Active	Active
